The supplement of paper PMC10307832

How the values were obtained:
Assay in all cases: relative viability (nuclei count vs DMSO), 5 days (fraction); higher = more cells survive
[1] = tested on: NCI-H2347
In short: (§1)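 Each reported value is a median over duplicate plates. It expresses relative viability: treated-well nuclei count divided by vehicle-well nuclei count. Lung cancer cell lines in 1536-well plates were dosed by pin tool a day after seeding, alone with one drug or with a fixed anchor-drug dose plus five library-drug doses (not always all listed) in √10 steps, and nuclei were counted after 5 days.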

[2] = tested on: EPLC-272H
In short: as §1

[3] = tested on: H3255
In short: as §1

[4] = tested on: NCI-H661
In short: as §1

[5] = tested on: 201T
In short: as §1

[6] = tested on: COR-L 105
In short: as §1

[7] = tested on: NCI-H2087
In short: as §1

[8] = tested on: NCI-H2126
In short: as §1

[9] = tested on: NCI-H2405
In short: as §1

[10] = tested on: HCC-78
In short: as §1

[11] = tested on: LC-2-ad
In short: as §1

## CCN(CC)CCCCNc1ncc2cc(-c3cc(OC)cc(OC)c3)c(NC(=O)NC(C)(C)C)nc2n1 + CS(=O)(=O)CCNCc1ccc(-c2ccc3ncnc(Nc4ccc(OCc5cccc(F)c5)c(Cl)c4)c3c2)o1 [Lapatinib] (partner 2 µM)
[1]; first compound 0.01 µM
  relative viability: 0.923
[1]; first compound 0.03162 µM
  relative viability: 0.79
[1]; first compound 0.1 µM
  relative viability: 1.06
[1]; first compound 0.3162 µM
  relative viability: 0.878
[1]; first compound 1 µM
  relative viability: 0.931
[2]; first compound 0.01 µM
  relative viability: 1.05
[2]; first compound 0.1 µM
  relative viability: 0.956
[2]; first compound 0.3162 µM
  relative viability: 0.922
[2]; first compound 1 µM
  relative viability: 0.642
[3]; first compound 0.01 µM
  relative viability: 0.26
[3]; first compound 0.03162 µM
  relative viability: 0.235
[3]; first compound 0.1 µM
  relative viability: 0.25
[3]; first compound 0.3162 µM
  relative viability: 0.258
[3]; first compound 1 µM
  relative viability: 0.227
[4]; first compound 0.01 µM
  relative viability: 0.569
[4]; first compound 0.03162 µM
  relative viability: 0.457
[4]; first compound 0.1 µM
  relative viability: 0.432
[4]; first compound 0.3162 µM
  relative viability: 0.502
[4]; first compound 1 µM
  relative viability: 0.493
[5]; first compound 0.01 µM
  relative viability: 1.03
[5]; first compound 0.03162 µM
  relative viability: 1.04
[5]; first compound 0.1 µM
  relative viability: 1.12
[5]; first compound 0.3162 µM
  relative viability: 1.08
[5]; first compound 1 µM
  relative viability: 0.884
[6]; first compound 0.01 µM
  relative viability: 0.386
[6]; first compound 0.03162 µM
  relative viability: 0.361
[6]; first compound 0.1 µM
  relative viability: 0.399
[6]; first compound 0.3162 µM
  relative viability: 0.422
[6]; first compound 1 µM
  relative viability: 0.387
[7]; first compound 0.01 µM
  relative viability: 1.15
[7]; first compound 0.03162 µM
  relative viability: 0.99
[7]; first compound 0.1 µM
  relative viability: 1.23
[7]; first compound 0.3162 µM
  relative viability: 1.06
[7]; first compound 1 µM
  relative viability: 1.07
[8]; first compound 0.01 µM
  relative viability: 0.786
[8]; first compound 0.03162 µM
  relative viability: 0.72
[8]; first compound 0.1 µM
  relative viability: 0.796
[8]; first compound 0.3162 µM
  relative viability: 0.808
[8]; first compound 1 µM
  relative viability: 0.726
[9]; first compound 0.01 µM
  relative viability: 0.926
[9]; first compound 0.03162 µM
  relative viability: 1.05
[9]; first compound 0.1 µM
  relative viability: 1.16
[9]; first compound 0.3162 µM
  relative viability: 1.28
[9]; first compound 1 µM
  relative viability: 1.04
[10]; first compound 0.03162 µM
  relative viability: 1.09
[10]; first compound 0.1 µM
  relative viability: 1.09
[10]; first compound 0.3162 µM
  relative viability: 0.87
[10]; first compound 1 µM
  relative viability: 0.748
[11]; first compound 0.01 µM
  relative viability: 1.05
[11]; first compound 0.03162 µM
  relative viability: 1
[11]; first compound 0.1 µM
  relative viability: 1.22
